This is an account of results in patent publication US20090221559A1 (priority 2005, published 2009).

Where two headings read alike, the source gives them in different places.

Assay [1] deals with T1, HCV NS5B polymerase (His-tagged, C-terminal 21 amino acid deleted NS5B, HC-J4) (Hepatitis C virus genotype 1b, UniProt O92972).
T1 construct: The cDNA encoding NS5B amino acid 1-570 (HC-J4, genotype 1b); His tag (His6, from pET-21b) (C); made in house; host or cells: E. coli BL21 (DE3)
Kind of assay: NS5b polymerase assay (biochemical RdRp assay, 3H-GTP incorporation, SPA beads). The arrangement: species or system HCV genotype 1b. How it is done: (§1) The compounds of formula (I) were tested for anti-HCV activity in an assay determining their activity against NS5b polymerase and in an HCV replicon assay
The cDNA encoding NS5B amino acid 1-570 (HC-J4, genotype 1b, pCV-J4L6S, genebank accession number AF054247) was subcloned into the Nhe I and Xho I restriction sites of pET-21b. Expression of the subsequent His-tagged C-terminal 21 amino acid deleted NS5B was performed as follows:
Following transformation in BL21 (DE3) competent cells, bacterial cells were grown in 22 liter LB/Amp media until to reach OD600=0.4-0.6. Protein expression was induced by addition of IPTG 0.4 mM, supplemented with 10 μM MgCl2, and incubated for 14-16 hrs at 20° C. Cells were harvested, resuspended in lysis buffer (20 mM Tris-HCl pH=7.5, 0.3 M NaCl, 10% glycerol, 0.1% NP40, 4 mM MgCl2, 14 mM beta-mercaptoethanol, with tablet of EDTA-free protease cocktail inhibitors) and lysed by sonification. The cell lysate was cleared by high-speed centrifugation (20K×g for 30 min), captured on Ni-NTA beads for 70 min at 4° C., and eluted with 25 mM Hepes pH 7.5, 0.5 M NaCl, 10% glycerol, 14 mM BME, 500 mM imidazole. The eluent was dialysed against 25 mM Hepes pH 7.5, 10% glycerol, 50 mM NaCl, 14 mM BME, after which the protein was further purified by heparin chromatography using the same buffer with 1 M NaCl for elution. Fractions containing pure protein were collected, dialyzed against storage buffer 25 mM Hepes pH=7.5, 300 mM NaCl, 10% glycerol, 14 mM BME), and flash-freezed in liquid nitrogen.
Measurement of HCV NS5B polymerization activity was performed by evaluating the amount of radiolabeled GTP incorporated by the enzyme in a newly synthesized RNA using heteropolymeric RNA template/primer. The highthroughput RdRp assay was carried out in 384-well plates using 200 nM enzyme, 0.1 μCi of ^3H GTP, 5 mM MgCl2, 600 nM GTP, 30 nM PolyC, 300 nM 5′-biotinylated oligo(rG13)/poly(rC) in 20 mM Tris pH 7.5, 21 mM KCl, 2.5 mM DTT, 16.7 mM NaCl and 0.17 mM EDTA. Test compounds were dissolved in dimethylsulfoxide. The test compounds were added to the preformed polymerase-template complex, and incubated at room temperature (RT) for 15 min before the addition of NTPs. The 30-μl reaction was terminated after 2 h at 25° C. upon addition of 30-μl PVT-SPA beads (Amersham Biosciences RPNQ0009, 5 mg/ml in 0.5 M EDTA).

Assay [2] relates to HCV replicon RNA replication in Huh-7 luc/neo (Huh-Luc) cells. Kind of assay: HCV replicon assay (stable replicon cell reporter assay, luciferase read-out). It is filed as cell-based, HCV type 1b. How it is done: as §1
The compounds of the present invention were examined for activity in the inhibition of HCV RNA replication in a cellular assay. […] The cellular assay was based on a bicistronic expression construct, as described by Lohmann et al. (1999) Science vol. 285 pp. 110-113 with modifications described by Krieger et al. (2001) Journal of Virology 75: 4614-4624, in a multi-target screening strategy. In essence, the method was as follows.
The assay utilized the stably transfected cell line Huh-7 luc/neo (hereafter referred to as Huh-Luc). This cell line harbored an RNA encoding a bicistronic expression construct comprising the wild type NS3-NS5B regions of HCV type 1b translated from an Internal Ribosome Entry Site (IRES) from encephalomyocarditis virus (EMCV), preceded by a reporter portion (FfL-luciferase), and a selectable marker portion (neo^R, neomycine phosphotransferase). The construct was bordered by 5′ and 3′ NTRs (non-translated regions) from HCV type 1b. Continued culture of the replicon cells in the presence of G418 (neo^R) was dependent on the replication of the HCV RNA. The stably transfected replicon cells that expressed HCV RNA, which replicated autonomously and to high levels, encoding inter alia luciferase, were used for screening the antiviral compounds.
The replicon cells were plated in 384 well plates in the presence of the test and control compounds which were added in various concentrations. Following an incubation of three days, HCV replication was measured by assaying luciferase activity (using standard luciferase assay substrates and reagents and a Perkin Elmer ViewLux™ ultraHTS microplate imager). […] The inhibitory activity of the compound on luciferase activity was monitored on the Huh-Luc cells, enabling a dose-response curve for each test compound.

The mark [3] stands for this setting: NS5B Polymerase Assay IC50, 200 nM enzyme, 3H-GTP incorporation, 2 h at 25° C.
The mark [4] stands for this setting: Hepatitis C virus, Huh-7, 72 h, read-out: Replicon Assay EC50, Huh-Luc cells, three days incubation, luciferase activity.
Setting [5] is: read-out: NS5B Polymerase Assay IC50.
[6] abbreviates: read-out: Replicon Assay EC50, Huh-Luc cells, incubation of three days, luciferase activity.
The mark [7] stands for this setting: NS5B Polymerase Assay IC50 (μM).
[8] abbreviates: Hepatitis C virus, Huh-7, 72 h, read-out: Replicon Assay EC50 (μM), Huh-Luc cells, incubation of three days, luciferase activity.

T1 sequence (O92972 2417-3000, looked up, stated change not applied): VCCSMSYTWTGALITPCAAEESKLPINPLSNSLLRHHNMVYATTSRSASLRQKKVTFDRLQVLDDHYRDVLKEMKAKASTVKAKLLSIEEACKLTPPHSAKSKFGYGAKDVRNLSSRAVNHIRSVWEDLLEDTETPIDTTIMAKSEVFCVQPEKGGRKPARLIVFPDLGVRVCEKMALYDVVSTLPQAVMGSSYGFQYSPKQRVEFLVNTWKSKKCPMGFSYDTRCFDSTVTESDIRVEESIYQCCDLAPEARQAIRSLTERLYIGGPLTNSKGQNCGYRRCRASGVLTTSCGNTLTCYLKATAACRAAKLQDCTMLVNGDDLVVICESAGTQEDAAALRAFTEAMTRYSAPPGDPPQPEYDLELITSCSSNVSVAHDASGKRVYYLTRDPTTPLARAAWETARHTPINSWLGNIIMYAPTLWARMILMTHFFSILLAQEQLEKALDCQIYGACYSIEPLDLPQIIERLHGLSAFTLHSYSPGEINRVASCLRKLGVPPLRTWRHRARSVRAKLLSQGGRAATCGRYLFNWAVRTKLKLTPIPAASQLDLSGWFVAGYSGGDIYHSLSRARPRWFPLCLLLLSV

For the compound `CC(=O)N1c2ccccc2NC2=C(C(=O)CC(c3ccccc3OCc3ccccc3)C2)C1c1cccc(OC(=O)c2ccc(Cl)cc2)c1` (single isomer, unassigned) [compound 191, 10-Acetyl-3-(2-benzyloxyphenyl)-11-[3-(4-chlorobenzoyloxy)phenyl]-2,3,4,5,10,11-hexahydro-dibenzo[b,e][1,4]diazepin-1-one], in assay [1] (setting [3]), the IC50 was greater than 42.7 µM. Moreover, the EC50 in assay [2] (setting [4]) turned out to be 2.88 µM.

For `CC(=O)N1c2ccccc2NC2=C(C(=O)CC(c3ccccc3OCc3ccccc3)C2)C1c1cccc(OC(=O)c2ccc(Cl)cc2)c1` (single isomer, unassigned) [compound 192, 10-Acetyl-3-(2-benzyloxyphenyl)-11-[3-(4-chlorobenzoyloxy)phenyl]-2,3,4,5,10,11-hexahydro-dibenzo[b,e][1,4]diazepin-1-one], in assay [1] (read-out: NS5B Polymerase Assay IC50, 200 nM enzyme, 3H-GTP incorporation, 2 h at 25° C.), the 50% inhibitory concentration (IC50) is greater than 42.7 µM. Also, in assay [2] (read-out: Replicon Assay EC50, Huh-Luc cells, three days incubation, luciferase activity), the EC50 was 4.87 µM.

In assay [1] (setting [3]), `CC(=O)N1c2ccccc2NC2=C(C(=O)CC(C)(C)C2)[C@H]1c1ccc(OCc2ccccc2)cc1` (single isomer, unassigned) [compound 301] displayed an IC50 of 1.52 µM. The EC50 in assay [2] (setting [4]) turned out to be 15.3 µM.

In assay [1] (setting [3]), `CC(=O)N1c2ccccc2NC2=C(C(=O)CC(C)(C)C2)[C@@H]1c1ccc(OCc2ccccc2)cc1` (single isomer, unassigned) [compound 302] came in with an IC50 of 92.5 µM. Besides, the EC50 in assay [2] (setting [4]) was 1.87 µM.

The compound `CC(=O)N1c2ccccc2NC2=C(C(=O)CC(C)(C)C2)[C@H]1c1ccc(OCc2ccccc2)cc1Cl` (single isomer, unassigned) [compound 305] came in with an IC50 in assay [1] (setting [3]) of 0.035 µM. Moreover, in assay [2] (setting [4]), the EC50 turned out to be 7.74 µM.

The compound `CC(=O)N1c2ccccc2NC2=C(C(=O)CC(C)(C)C2)[C@@H]1c1ccc(OCc2ccccc2)cc1Cl` (single isomer, unassigned) [compound 306] came in with an IC50 in assay [1] (setting [3]) of 83.1 µM. Also, in assay [2] (setting [4]), the EC50 was found to be 3.92 µM.

Consider `O=C1CC(c2ccccc2OCc2ccccc2)CC2=C1C(c1ccc(Cl)cc1Cl)Nc1ccccc1N2` (single isomer, unassigned) [compound 417, 3-(2-Benzyloxyphenyl)-11-(2,4-dichlorophenyl)-2,3,4,5,10,11-hexahydro-dibenzo[b,e][1,4]diazepin-1-one], for which the IC50 in assay [1] (setting [5]) was greater than 42.7 µM. Moreover, the EC50 in assay [2] (setting [6]) came out at 8.33 µM.

As to `O=C1CC(c2ccccc2OCc2ccccc2)CC2=C1C(c1cccc(OCc3ccccc3)c1)Nc1ccccc1N2` (single isomer, unassigned) [compound 418, 3-(2-Benzyloxyphenyl)-11-(3-benzyloxyphenyl)-2,3,4,5,10,11-hexahydro-dibenzo[b,e][1,4]diazepin-1-one], the IC50 in assay [1] (setting [5]) was greater than 42.7 µM. For the same compound, the EC50 in assay [2] (setting [6]) was 2.16 µM.

`O=C1CC(c2ccccc2OCc2ccccc2)CC2=C1C(c1ccc(Cl)cc1Cl)Nc1ccccc1N2` (single isomer, unassigned) [compound 419, 3-(2-Benzyloxyphenyl)-11-(2,4-dichlorophenyl)-2,3,4,5,10,11-hexahydro-dibenzo[b,e][1,4]diazepin-1-one] returned an IC50 in assay [1] (setting [7]) greater than 42.7 µM. For the same compound, the EC50 in assay [2] (setting [8]) stood at 4.82 µM.

For `O=C1CC(c2ccccc2OCc2ccccc2)CC2=C1C(c1cccc(OCc3ccccc3)c1)Nc1ccccc1N2` (single isomer, unassigned) [compound 420, 3-(2-Benzyloxyphenyl)-11-(3-benzyloxyphenyl)-2,3,4,5,10,11-hexahydro-dibenzo[b,e][1,4]diazepin-1-one], the IC50 in assay [1] (setting [7]) was greater than 42.7 µM. Also, the EC50 in assay [2] (setting [8]) is 3.23 µM.

Take `O=C1C[C@@H](c2ccccc2OCc2ccccc2)CC2=C1C(c1cccc(OC(=O)c3ccc(Cl)cc3)c1)Nc1ccccc1N2` (single isomer, unassigned) [compound 512, 11-[3-(4-Chlorobenzoyloxy)phenyl]-3-(2-benzyloxyphenyl)-2,3,4,5,10,11-hexahydro-dibenzo[b,e][1,4]diazepin-1-one]: in assay [1] (setting [7]), the IC50 was determined as 84.5 µM. Besides, in assay [2] (setting [8]), the 50% effective concentration (EC50) was determined as 8.42 µM.

As for `CCCCC(=O)N1c2ccccc2NC2=C(C(=O)CC(C)(C)C2)C1c1ccc(OC)cc1OC` (centres unmarked) [compound 1], in assay [1] (setting [3]), the concentration for half-maximal inhibition (IC50) is greater than 42.7 µM. Besides, the EC50 in assay [2] (setting [4]) was found to be 8.53 µM.

Regarding `CCOc1ccc(C2C3=C(CC(C)(C)CC3=O)Nc3ccccc3N2C(=O)C(F)(F)F)cc1` (centres unmarked) [compound 2], the IC50 in assay [1] (setting [3]) is greater than 42.7 µM. Moreover, the EC50 in assay [2] (setting [4]) was 26.5 µM.

`COc1ccc(OC)c(C2C3=C(CC(C)(C)CC3=O)Nc3ccccc3N2C(=O)C(F)(F)F)c1` (centres unmarked) [compound 3] came in with an IC50 in assay [1] (setting [3]) greater than 42.7 µM. The EC50 in assay [2] (setting [4]) was greater than 32 µM.

`CC(=O)N1c2ccccc2NC2=C(C(=O)CC(C)(C)C2)C1c1ccc(F)cc1` (centres unmarked) [compound 4] came in with an IC50 in assay [1] (setting [3]) greater than 42.7 µM. Moreover, the EC50 in assay [2] (setting [4]) was greater than 32 µM.

As for `CC(C)C(=O)N1c2ccccc2NC2=C(C(=O)CC(C)(C)C2)C1c1ccc(C(F)(F)F)cc1` (centres unmarked) [compound 5], the IC50 in assay [1] (setting [3]) was greater than 42.7 µM. Also, in assay [2] (setting [4]), the EC50 was determined as 19.9 µM.

Take `CCCCCC(=O)N1c2ccccc2NC2=C(C(=O)CC(C)(C)C2)C1c1ccccc1OCc1ccccc1` (centres unmarked) [compound 6]: the half-inhibitory concentration (IC50) in assay [1] (setting [3]) was greater than 42.7 µM. For the same compound, the EC50 in assay [2] (setting [4]) turned out to be 7.32 µM.

The compound `CCCCC(=O)N1c2ccccc2NC2=C(C(=O)CC(C)(C)C2)C1c1ccc(Cl)cc1` (centres unmarked) [compound 7] came in with an IC50 in assay [1] (setting [3]) greater than 42.7 µM. Further, in assay [2] (setting [4]), the EC50 was determined as 8.31 µM.

The compound `CN(C)c1ccc(C2C3=C(CC(C)(C)CC3=O)Nc3ccccc3N2C(=O)Cc2ccc(Cl)cc2)cc1` (centres unmarked) [compound 8] gave an IC50 in assay [1] (setting [3]) greater than 42.7 µM. The EC50 in assay [2] (setting [4]) came out at 5.65 µM.

In the case of `CC(C)CC(=O)N1c2ccccc2NC2=C(C(=O)CC(C)(C)C2)C1c1ccc(Cl)cc1` (centres unmarked) [compound 9], the IC50 in assay [1] (setting [3]) was greater than 42.7 µM. The EC50 in assay [2] (setting [4]) was 3.61 µM.

For the compound `CCCCC(=O)N1c2ccccc2NC2=C(C(=O)CC(C)(C)C2)C1c1ccc(F)cc1` (centres unmarked) [compound 10], the IC50 in assay [1] (setting [3]) was greater than 33.3 µM. Also, the EC50 in assay [2] (setting [4]) is 19.5 µM.

Compound `CCC(=O)N1c2ccccc2NC2=C(C(=O)CC(C)(C)C2)C1c1ccccc1OCc1ccccc1` (centres unmarked) [compound 11] yielded an IC50 in assay [1] (setting [3]) greater than 42.7 µM. The EC50 in assay [2] (setting [4]) was 14.7 µM.

`COc1ccc(C2C3=C(CC(C)(C)CC3=O)Nc3ccccc3N2C(=O)Cc2ccc(Cl)cc2)cc1` (centres unmarked) [compound 12] came in with an IC50 in assay [1] (setting [3]) greater than 42.7 µM. Besides, the EC50 in assay [2] (setting [4]) was found to be 3.11 µM.

Compound `CC1(C)CC(=O)C2=C(C1)Nc1ccccc1N(C(=O)c1ccccc1)C2c1ccc([N+](=O)[O-])cc1` (centres unmarked) [compound 13] had an IC50 in assay [1] (setting [3]) greater than 42.7 µM. The EC50 in assay [2] (setting [4]) stood at 20.4 µM.

In turn, `CCCCOc1ccc(C2C3=C(CC(C)(C)CC3=O)Nc3ccccc3N2C(=O)C(C)C)cc1` (centres unmarked) [compound 14] gave an IC50 in assay [1] (setting [3]) greater than 33.3 µM. Besides, the EC50 in assay [2] (setting [4]) is 10.6 µM.
